For the assay, the system named is L1210 leukemia ip in BDF1 mice, survival T/C. Put plainly: NCI In Vivo Anticancer Drug Screen. Data for tumor model L1210 Leukemia (intraperitoneal) in B6D2F1 (BDF1) mice. The settings on record: endpoint: mean survival time, higher = longer survival. An outline of the steps: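 Tumor was transplanted into mice, which were then dosed with test compound or vehicle alone. Survival was recorded for each group, and the treated figure was expressed relative to the control figure.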

Where [1] appears, read: dose: 100.0 mg/kg/injection, schedule: Q01DX009 (ip), vehicle: Klucel (hydroxypropylcellulose) (HPC).
[2] abbreviates: dose: 200.0 mg/kg/injection, schedule: Q01DX009 (ip), vehicle: Klucel (hydroxypropylcellulose) (HPC).
Where [3] appears, read: dose: 100.0 mg/kg/injection, schedule: Q01DX001 (ip), vehicle: saline.
[4] abbreviates: dose: 100.0 mg/kg/injection, schedule: Q01DX009 (ip), vehicle: saline.
Where [5] appears, read: dose: 200.0 mg/kg/injection, schedule: Q01DX001 (ip), vehicle: saline.
The mark [6] stands for this setting: dose: 400.0 mg/kg/injection, schedule: Q01DX001 (ip), vehicle: saline.
Setting [7] is: dose: 400.0 mg/kg/injection, schedule: Q01DX009 (ip), vehicle: saline.
The mark [8] stands for this setting: dose: 100.0 mg/kg/injection, schedule: Q04DX002 (ip), vehicle: Klucel (hydroxypropylcellulose) (HPC).
Setting [9] is: dose: 200.0 mg/kg/injection, schedule: Q04DX002 (ip), vehicle: Klucel (hydroxypropylcellulose) (HPC).
Where [10] appears, read: dose: 400.0 mg/kg/injection, schedule: Q04DX002 (ip), vehicle: Klucel (hydroxypropylcellulose) (HPC).
The mark [11] stands for this setting: dose: 50.0 mg/kg/injection, schedule: Q01DX009 (ip), vehicle: saline with Tween-80.
Where [12] appears, read: dose: 100.0 mg/kg/injection, schedule: Q01DX009 (ip), vehicle: saline with Tween-80.

Molecules are shown by their SMILES. “And” between values parts separate entries of the source, which are not always exact repeats. Equal values may be shown once. Inconclusive results and toxic doses are left out.

With `COc1ccc(/C=C(C(=O)O)/C(=C/c2ccc(OC)c(OC)c2)C(=O)O)cc1OC`, the T/C was 96 % of control under setting [1]; 95 % of control (dose: 100.0 mg/kg/injection, schedule: Q04DX003 (ip), vehicle: Klucel (hydroxypropylcellulose) (HPC)); 105 % of control under setting [2]; 96 % of control (dose: 200.0 mg/kg/injection, schedule: Q04DX003 (ip), vehicle: Klucel (hydroxypropylcellulose) (HPC)); 91 % of control (dose: 400.0 mg/kg/injection, schedule: Q01DX009 (ip), vehicle: Klucel (hydroxypropylcellulose) (HPC)); 98 % of control (dose: 400.0 mg/kg/injection, schedule: Q04DX003 (ip), vehicle: Klucel (hydroxypropylcellulose) (HPC)).

Turning to `OC1C2CCN(CC2)C1CN1CCOCC1` (stereo unspecified), the T/C under setting [3] is 107 % of control; the T/C under setting [4] is 94 % of control; the T/C under setting [5] is 108 % of control; the T/C (dose: 200.0 mg/kg/injection, schedule: Q01DX009 (ip), vehicle: saline) was 91 % of control; the T/C under setting [6] was 97 % of control; the T/C under setting [7] is 91 % of control.

Take `O=C(O)Cn1cc(Cl)cc(Cl)c1=O`: the T/C by setting is: under setting [8], 107 % of control; under setting [9], 107 % of control; under setting [10], 96 % of control.

Regarding `N=c1ccccn1CC(O)COc1cccc([N+](=O)[O-])c1` (stereo unspecified), the T/C (dose: 100.0 mg/kg/injection, schedule: Q04DX002 (ip), vehicle: other) was 97 % of control and the T/C (dose: 200.0 mg/kg/injection, schedule: Q04DX002 (ip), vehicle: other) is 93 % of control.

In the case of `CC(C)(CO)N=Cc1ccccc1O.CC(C)(CO)N=Cc1ccccc1O.[Ni]`, the T/C was 110 % of control (dose: 75.0 mg/kg/injection, schedule: Q01DX001 (ip), vehicle: other) and 117 % of control (dose: 150.0 mg/kg/injection, schedule: Q01DX001 (ip), vehicle: other).

In the case of `O=C(NCc1ccncc1)C(c1ccccc1)c1ccccc1`, the T/C is 96 % of control under setting [8] and 92 % of control under setting [9].

In the case of `O=C(O)c1cc[c]([Hg][S]c2ncnc3nc[nH]c23)cc1`, the T/C runs as follows: (dose: 6.0 mg/kg/injection, schedule: Q01DX Z (ip), vehicle: carboxymethylcellulose (CMC)) 105 % of control; (dose: 6.25 mg/kg/injection, schedule: Q01DX015 (ip), vehicle: saline) 110 % of control; (dose: 12.0 mg/kg/injection, schedule: Q01DX Z (ip), vehicle: carboxymethylcellulose (CMC)) 116 % of control; (dose: 16.5 mg/kg/injection, schedule: Q01DX009 (ip), vehicle: saline) 118 % of control; (dose: 25.0 mg/kg/injection, schedule: Q01DX015 (ip), vehicle: saline) 164 % of control; (dose: 50.0 mg/kg/injection, schedule: Q01DX Z (ip), vehicle: carboxymethylcellulose (CMC)) 103 % of control. The T/C (dose: 100.0 mg/kg/injection, schedule: Q01DX Z (ip), vehicle: carboxymethylcellulose (CMC)) is 114 % of control.

Consider `O=S1(=O)CC23CC=CCC2(CC=CC3)C1` (stereo unspecified), for which the T/C by setting is: (dose: 50.0 mg/kg/injection, schedule: Q01DX009 (ip), vehicle: Klucel (hydroxypropylcellulose) (HPC)) 100 % of control; under setting [1], 97 % of control; under setting [2], 96 % of control.

For the compound `CC(=O)NC(CCSCc1c2ccccc2c(C)c2ccccc12)C(=O)O` (stereo unspecified), the T/C was 86 % of control under setting [11]; 98 % of control under setting [12]; 95 % of control (dose: 100.0 mg/kg/injection, schedule: Q04DX003 (ip), vehicle: saline with Tween-80); 95 % of control (dose: 200.0 mg/kg/injection, schedule: Q04DX003 (ip), vehicle: saline with Tween-80).

With `O=c1cc(NCc2cccc([N+](=O)[O-])c2)[nH]c(=O)[nH]1`, the T/C is 91 % of control (dose: 50.0 mg/kg/injection, schedule: Q01DX001 (ip), vehicle: Klucel (hydroxypropylcellulose) (HPC)); 89 % of control (dose: 100.0 mg/kg/injection, schedule: Q01DX001 (ip), vehicle: Klucel (hydroxypropylcellulose) (HPC)); 93 % of control (dose: 200.0 mg/kg/injection, schedule: Q01DX001 (ip), vehicle: Klucel (hydroxypropylcellulose) (HPC)).

On to `COc1cc(C=Nc2ccc(C)c(Cl)c2)ccc1OC(=O)c1ccccc1`, for which the T/C reads like this: (dose: 100.0 mg/kg/injection, schedule: Q04DX002 (ip), vehicle: saline with Tween-80) 96 % of control; (dose: 200.0 mg/kg/injection, schedule: Q04DX002 (ip), vehicle: saline with Tween-80) 93 % of control; (dose: 400.0 mg/kg/injection, schedule: Q04DX002 (ip), vehicle: saline with Tween-80) 104 % of control.

Turning to `O=C(C(Cl)(Cl)Cl)C(Cl)(Cl)Cl`, the T/C reads like this: (dose: 75.0 mg/kg/injection, schedule: Q01DX009 (ip), vehicle: saline with Tween-80) 90 % of control; under setting [8], 113 % of control; (dose: 150.0 mg/kg/injection, schedule: Q01DX009 (ip), vehicle: saline with Tween-80) 93 % of control; under setting [9], 113 % of control; (dose: 300.0 mg/kg/injection, schedule: Q01DX009 (ip), vehicle: saline with Tween-80) 86 % of control; under setting [10], 87 % of control.

Consider `O=[N+]([O-])c1cccc(OCCOc2cccc([N+](=O)[O-])c2)c1`, for which the T/C is 97 % of control under setting [3], 96 % of control under setting [5] and 103 % of control under setting [6].

As for `O=C(O)c1cc2ccccc2o1`, the T/C under setting [11] was 90 % of control and the T/C under setting [12] is 97 % of control.

Take `CC(=O)Nc1ccc(/C=N\NC(=O)CCCC(=O)N/N=C/c2ccc(NC(C)=O)cc2)cc1`: the T/C is 104 % of control (dose: 50.0 mg/kg/injection, schedule: Q01DX001 (ip), vehicle: saline); 96 % of control under setting [3]; 91 % of control under setting [4]; 92 % of control under setting [5]; 98 % of control under setting [6]; 88 % of control under setting [7].

As for `CC(C)(C)C(=O)CC(c1ccccc1)c1ccccc1`, the T/C was 102 % of control (dose: 50.0 mg/kg/injection, schedule: Q01DX001 (ip), vehicle: other); 98 % of control (dose: 100.0 mg/kg/injection, schedule: Q01DX001 (ip), vehicle: other); 98 % of control (dose: 200.0 mg/kg/injection, schedule: Q01DX001 (ip), vehicle: other); 98 % of control (dose: 400.0 mg/kg/injection, schedule: Q01DX001 (ip), vehicle: other).

`CCCCCCOC(=O)Nc1cccc2ccccc12`: the T/C (dose: 75.0 mg/kg/injection, schedule: Q01DX009 (ip), vehicle: saline) is 94 % of control; the T/C (dose: 150.0 mg/kg/injection, schedule: Q01DX009 (ip), vehicle: saline) was 99 % of control; the T/C (dose: 300.0 mg/kg/injection, schedule: Q01DX009 (ip), vehicle: saline) is 96 % of control.

As for `COc1ccc(/C=C2\N=C(c3cccc(Cl)c3)OC2=O)cc1OC`, the T/C under setting [12] was 105 % of control; the T/C under setting [8] was 89 % of control; the T/C (dose: 200.0 mg/kg/injection, schedule: Q01DX009 (ip), vehicle: saline with Tween-80) is 97 % of control; the T/C under setting [9] is 92 % of control; the T/C (dose: 400.0 mg/kg/injection, schedule: Q01DX009 (ip), vehicle: saline with Tween-80) is 105 % of control; the T/C under setting [10] was 86 % of control.

Regarding `Nc1nc(N)c2nc(CNc3ccc(C(=O)NC(CC(=O)O)C(=O)O)cc3)cnc2n1` (stereo unspecified), the T/C (dose: 1.56 mg/kg/injection, schedule: Q01DX Z (ip), vehicle: saline) was 114 % of control; the T/C (dose: 3.12 mg/kg/injection, schedule: Q01DX009 (ip), vehicle: saline) was 110 % of control; the T/C (dose: 3.13 mg/kg/injection, schedule: Q01DX Z (ip), vehicle: saline) was 108 % of control; the T/C (dose: 25.0 mg/kg/injection, schedule: Q01DX009 (ip), vehicle: saline) is 151 % of control; the T/C (dose: 25.0 mg/kg/injection, schedule: Q01DX Z (ip), vehicle: saline) was 172 % of control; the T/C (dose: 50.0 mg/kg/injection, schedule: Q01DX009 (ip), vehicle: saline) was 166 % of control. For the same compound, the T/C is, setting by setting: (dose: 50.0 mg/kg/injection, schedule: Q01DX Z (ip), vehicle: saline) 118 % of control; under setting [4], 95 % of control; (dose: 100.0 mg/kg/injection, schedule: Q01DX Z (ip), vehicle: saline) 114 % of control and 88 % of control; (dose: 200.0 mg/kg/injection, schedule: Q01DX Z (ip), vehicle: saline) 95 % of control.
